According to patent US20250367235A1, “SYSTEMS AND METHODS FOR MODULATING A CELL PHENOTYPE” (XCELL BIOSCIENCES, INC., priority 2019, published 2025):

Tested on: PC-3, a prostate cancer cell line
Experiment: PBMC tumor cell killing co-culture with anti-PD-1 antibodies, cell viability by CellTiter Glo
Type: cell-based, human
Details: 1% O2, 2 PSI above ambient pressure vs ambient conditions; antibody 10 ug/ml; PBMCs with PC-3 at effector to target ratio 20:1; 5 days; average of 21 PBMC isolates; FIG. 2
Protocol: PBMCs were isolated from 21 healthy volunteers. The PBMCs were cultured together with target tumor cells, (PC-3, a prostate cancer cell line), at an effector to target ratio of 20:1. All cells were cultured in RPMI1640 medium supplemented with 10% fetal bovine serum over a 5 day period. PBMCs were not activated with IL-2. Cell viability was measured at the end of the 5 day period by CellTiter Glo Assay (Promega) with 3 or 4 technical replicates. Each of the 21 PBMC isolates, and target cells, was cultured under either ambient conditions, or hypoxic and hyperbaric conditions (1% O2, 2 PSI above ambient pressure), and with or without anti-PD-1 antibodies. The anti-PD-1 antibodies used were Nivolumab and Pembrolizumab (10 ug/ml). Average results across the 21 different PBMC isolates are shown in FIG. 2, with error bars representing the standard error of the mean, and p values were calculated using paired Student's t tests.

Substance	effect of hypoxic and hyperbaric conditions on efficacy of treatment at activating PBMCs to kill tumor cells
Nivolumab	did not have a noticeable effect
Pembrolizumab	more efficient at activating PBMCs to kill tumor cells
